In patent EP4772513A1, “PI3K-ALPHA INHIBITOR AND USE THEREOF” (TYK Medicines (Zhengzhou), Inc., priority 2023, dated 2025):

Key:
[1] = system: Human breast cancer cells SK-BR-3 (WT); assay: Cell proliferation inhibition assay (CTG), SK-BR-3 (WT); assay type: cell-based; conditions: Homo sapiens, 72 h, SK-BR-3 (WT) cells, 3 days incubation, CTG readout
Description: (§1) Cell Proliferation Inhibition Assay
(§2) 1. Experimental Materials
(§3) II. Experimental Protocol
(§4) • a) Cell suspension was prepared; • b) The medium was removed from the culture flask; • c) The cells were rinsed once with PBS; • d) Trypsin was added for digestion, and the cells were centrifuged and collected; • e) The cells were resuspended in medium, counted and adjusted to an appropriate concentration; • f) 100 µL of cell suspension was added to each well of a 96-well plate. One plate was used for each cell line, which was incubated overnight in a 37 °C, 5% CO2 incubator.
(§5) 2. Treatment of Compounds
(§6) • a) Serial dilutions of the test compounds were prepared: The compound was prepared as a 10 mM stock solution. 18 µL of the stock solution was dissolved in 982 µL of the culture medium containing DMSO, followed by 4-fold serial dilutions in culture medium containing 0.5% DMSO to give 9 concentrations. The concentrations of the diluted compound were as follows: 180000 nM, 45000 nM, 11250 nM, 2812.5 nM, 703.13 nM, 175.78 nM, 43.95 nM, 10.99 nM, and 2.75 nM. • b) After thorough mixing, 20 µL of each compound solution was added to the cell plate containing 100 µL of cells per well. Each concentration was tested in triplicate. Final concentrations of the compound were as follows: 30000 nM, 7500 nM, 1875 nM, 468.75 nM, 117.188 nM, 29.30 nM, 7.32 nM, 1.83 nM, and 0.46 nM. • c) The cells were transferred into the incubator and incubated for 3 days.
(§7) The cell plate was removed, 25 µL of CTG reagent was added to each well of the 96-well plate, the mixture was shook on a plate shaker at room temperature for 10 minutes, and the plate was read.
(§8) The cell survival rate was calculated using the following formula (% Cell Survival): % Cell Survival = 100% × (OD_Sample−OD_LCave)/(OD_HC−OD_LCave) [formula] • OD_HC: Reading of the 0.1‰ DMSO control group • OD_Sample: Reading of cells treated with compound • OD_LCave: Reading of blank medium
(§9) Analyzed by Prism: Dose-response-Inhibition - Log (inhibitor) vs response (three parameters for the best fit).

[2] = system: Human breast cancer cells T47D (H1047R); assay: Cell proliferation inhibition assay (CTG), T47D (H1047R); assay type: cell-based; conditions: Homo sapiens, 72 h, 3 days incubation, CTG readout
Description: as §1, §2, §3, §4, §5, §6, §7, §8, §9

SMILES	IC50 [1] [nM]	IC50 [2] [nM]
Cc1cc([C@@H](C)Nc2ccccc2C(=O)O)c2oc3c(c(=O)c2c1)CCN(c1ncccn1)C3 [Compound C175]	> 5000	≤ 500
C[C@@H](Nc1ccc(Cl)nc1C(=O)O)c1cc(F)cc2c(=O)c3c(oc12)CN(S(=O)(=O)c1ccc(F)cc1)CC3 [Compound C95]	> 5000	≤ 500
C[C@@H](Nc1ccc(Cl)nc1C(=O)O)c1cc(F)cc2c(=O)c3c(oc12)CN(S(=O)(=O)c1c(F)ccc(F)c1F)CC3 [Compound C135]	> 5000	≤ 500
C[C@@H](Nc1ccc(Cl)nc1C(=O)O)c1cc(F)cc2c(=O)c3c(oc12)CN(S(=O)(=O)c1cccc2c1CCO2)CC3 [Compound C120]	> 5000	≤ 500
Cc1cnn(C)c1S(=O)(=O)N1CCc2c(nc3c([C@@H](C)Nc4ccccc4C(=O)O)cc(F)cn3c2=O)C1 [Compound C182]	> 5000	≤ 500
Cc1cc([C@@H](C)Nc2ccccc2C(=O)O)c2oc3c(c(=O)c2c1)CCN(S(=O)(=O)c1c(C)nnn1C)C3 [Compound C156]	> 5000	≤ 500
Cc1nn(C)c(C)c1S(=O)(=O)N1CCc2c(oc3c([C@@H](C)Nc4ccc(Cl)nc4C(=O)O)cc(F)cc3c2=O)C1 [Compound C125]	> 5000	≤ 500

Other lines, results leading:

IC50 [1] [nM]	IC50 [2] [nM]	SMILES
> 5000	500 to 2000	C[C@@H](Nc1ccccc1C(=O)O)c1cc(F)cn2c(=O)c3c(nc12)CN(c1ccccc1)CC3 [Compound C208]
> 5000	500 to 2000	C[C@@H](Nc1ccc(Cl)nc1C(=O)O)c1cc(F)cc2c(=O)c3c(oc12)CN(S(=O)(=O)c1ccc(C#N)cc1)CC3 [Compound C92]
> 5000	≤ 500	CC(Nc1ccccc1C(=O)O)c1cc(F)cc2c(=O)c3c(oc12)C(C)N(S(=O)(=O)C(C)C)CC3 (single isomer, unassigned) [Compound C163]
> 5000	≤ 500	C[C@@H](Nc1ccc(Cl)nc1C(=O)O)c1cc(F)cc2c(=O)c3c(oc12)CN(S(=O)(=O)N1CCOCC1)CC3 [Compound C67]
> 5000	≤ 500	Cc1cc(C(C)Nc2ccccc2C(=O)O)c2nc3c(c(=O)n2c1)CCN(S(=O)(=O)C(C)C)C3 (single isomer, unassigned) [Compound C196]
> 5000	≤ 500	CC1CN(S(=O)(=O)N2CCc3c(oc4c(C(C)Nc5ccc(Cl)nc5C(=O)O)cc(F)cc4c3=O)C2)CC(C)O1 (centres unmarked) [Compound C133]
